Results on 13 molecules are retold here after patent US20240254087A1, “SELECTIVE, PARTIAL, AND ARRESTIN-BIASED 5-HT2A AGONISTS WITH UTILITY IN VARIOUS DISORDERS” (Saint Joseph's University, priority 2021, published 2024).

In one test the target is 5-HT6 (Homo sapiens, UniProt P50406). The experiment in a line: Competitive radioligand binding (NIMH PDSP). On the procedure: (§1) Method 1: Competitive binding experiments were performed by the National Institute of Mental Health Psychoactive Drug Screening Program (NIMH PDSP) using described methods or 5-HT2A experiments performed using [3H]-ketanserin displacement in human 5-HT2A expressing membranes. Target compounds were dissolved in DMSO and an initial screen performed to assess displacement of the radioligand from target receptors at a concentration of 10,000 nM. […] For the Ki experiments, compounds were always tested in triplicate on separate plates. Each plate also contained a known ligand for the receptor as a positive control.
Sequence of 5-HT6 (P50406 whole entry, species assumed): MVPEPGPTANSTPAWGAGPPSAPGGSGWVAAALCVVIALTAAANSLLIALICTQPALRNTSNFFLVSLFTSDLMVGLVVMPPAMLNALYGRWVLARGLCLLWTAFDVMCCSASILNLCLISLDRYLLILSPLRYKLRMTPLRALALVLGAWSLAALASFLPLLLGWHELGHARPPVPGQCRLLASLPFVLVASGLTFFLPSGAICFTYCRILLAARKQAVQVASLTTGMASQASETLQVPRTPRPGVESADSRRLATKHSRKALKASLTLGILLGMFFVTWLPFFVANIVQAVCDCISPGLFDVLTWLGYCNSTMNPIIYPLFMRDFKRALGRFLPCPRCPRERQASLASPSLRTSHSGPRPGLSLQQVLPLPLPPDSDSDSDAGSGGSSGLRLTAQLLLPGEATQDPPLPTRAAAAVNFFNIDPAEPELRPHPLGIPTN

The next test addresses T1, 5-HT3 (Homo sapiens, UniProt P46098).
T1 sequence (P46098 24-478): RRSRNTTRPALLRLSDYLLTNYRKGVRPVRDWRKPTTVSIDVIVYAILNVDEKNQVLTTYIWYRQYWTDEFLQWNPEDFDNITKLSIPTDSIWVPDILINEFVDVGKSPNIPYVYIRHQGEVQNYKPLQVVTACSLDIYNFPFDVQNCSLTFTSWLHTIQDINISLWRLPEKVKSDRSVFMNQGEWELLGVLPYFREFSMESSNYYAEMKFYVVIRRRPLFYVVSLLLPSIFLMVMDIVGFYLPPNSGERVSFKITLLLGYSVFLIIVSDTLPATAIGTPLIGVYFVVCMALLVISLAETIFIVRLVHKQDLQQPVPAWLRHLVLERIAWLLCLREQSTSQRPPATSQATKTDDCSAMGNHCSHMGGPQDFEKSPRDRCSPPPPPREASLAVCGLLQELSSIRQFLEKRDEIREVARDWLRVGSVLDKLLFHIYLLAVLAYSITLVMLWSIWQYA
The experiment in a line: Competitive radioligand binding (NIMH PDSP). How it is done: as §1

In another test the target is T2, 5-HT1A (Homo sapiens, UniProt P08908).
T2 sequence (P08908 1-422): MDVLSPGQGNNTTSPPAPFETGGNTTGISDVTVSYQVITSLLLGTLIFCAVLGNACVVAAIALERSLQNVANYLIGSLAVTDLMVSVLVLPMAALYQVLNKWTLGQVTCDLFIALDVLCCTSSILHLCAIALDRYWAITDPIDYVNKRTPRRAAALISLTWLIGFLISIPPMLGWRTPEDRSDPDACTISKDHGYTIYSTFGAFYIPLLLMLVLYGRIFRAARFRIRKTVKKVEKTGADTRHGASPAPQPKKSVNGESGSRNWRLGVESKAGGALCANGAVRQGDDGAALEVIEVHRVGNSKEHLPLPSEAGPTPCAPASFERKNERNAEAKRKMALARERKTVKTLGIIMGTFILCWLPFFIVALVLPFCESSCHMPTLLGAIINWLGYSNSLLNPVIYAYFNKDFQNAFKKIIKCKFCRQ
Kind of test: Competitive radioligand binding (NIMH PDSP). On the procedure: as §1

The target of another test is 5-HT7 (Homo sapiens, UniProt P34969). The experiment in a line: Competitive radioligand binding (NIMH PDSP). On the procedure:
as §1

In a further test the target is 5-HT1e (Homo sapiens, UniProt P28566). The experiment in a line: Competitive radioligand binding (NIMH PDSP). How it is done:
as §1

In another test the target is 5-HT1D (Homo sapiens, UniProt P28221). Kind of test: Competitive radioligand binding (NIMH PDSP). On the procedure:
as §1

For test [1], the target named is T3, 5-HT2A (Homo sapiens, UniProt P28223). Kind of test: Competitive radioligand binding (NIMH PDSP). How it is done: as §1
T3 sequence (P28223 whole entry): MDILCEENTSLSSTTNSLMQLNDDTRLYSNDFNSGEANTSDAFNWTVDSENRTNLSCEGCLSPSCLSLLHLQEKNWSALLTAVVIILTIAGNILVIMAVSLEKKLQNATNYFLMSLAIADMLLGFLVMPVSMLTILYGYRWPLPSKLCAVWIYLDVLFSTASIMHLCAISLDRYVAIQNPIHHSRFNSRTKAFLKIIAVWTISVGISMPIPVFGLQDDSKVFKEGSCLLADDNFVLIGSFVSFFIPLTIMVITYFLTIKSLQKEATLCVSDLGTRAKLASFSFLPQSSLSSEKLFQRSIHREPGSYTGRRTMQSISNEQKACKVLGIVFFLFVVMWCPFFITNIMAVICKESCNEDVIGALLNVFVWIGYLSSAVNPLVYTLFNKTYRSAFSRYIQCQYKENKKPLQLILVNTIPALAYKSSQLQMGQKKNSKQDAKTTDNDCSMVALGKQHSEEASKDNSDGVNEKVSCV
The next test deals with 5-HT5a (Homo sapiens, UniProt P47898). Kind of test: Competitive radioligand binding (NIMH PDSP). On the procedure:
as §1

A further test has as its target 5-HT1B (Homo sapiens, UniProt P28222). The experiment in a line: Competitive radioligand binding (NIMH PDSP). How it is done: as §1
For test [2], the system named is 5-HT2A. Kind of test: Ca2+ flux assay, 5-HT2A. Format: cell-based, human. The conditions noted are these: Gq/11 Ca2+ mobilization; higher number = skewed towards 5-HT2A. Background: Calcium assays in cells follow changes in intracellular calcium, usually with a dye or a luminescent sensor.
The target in test [3] is T4, 5-HT2B (Homo sapiens, UniProt P41595). The experiment in a line: Ca2+ flux assay, 5-HT2B. The arrangement: expressed in transfected cells. Format: cell-based. The conditions noted are these: Ca2+ flux.
T4 sequence (P41595 whole entry): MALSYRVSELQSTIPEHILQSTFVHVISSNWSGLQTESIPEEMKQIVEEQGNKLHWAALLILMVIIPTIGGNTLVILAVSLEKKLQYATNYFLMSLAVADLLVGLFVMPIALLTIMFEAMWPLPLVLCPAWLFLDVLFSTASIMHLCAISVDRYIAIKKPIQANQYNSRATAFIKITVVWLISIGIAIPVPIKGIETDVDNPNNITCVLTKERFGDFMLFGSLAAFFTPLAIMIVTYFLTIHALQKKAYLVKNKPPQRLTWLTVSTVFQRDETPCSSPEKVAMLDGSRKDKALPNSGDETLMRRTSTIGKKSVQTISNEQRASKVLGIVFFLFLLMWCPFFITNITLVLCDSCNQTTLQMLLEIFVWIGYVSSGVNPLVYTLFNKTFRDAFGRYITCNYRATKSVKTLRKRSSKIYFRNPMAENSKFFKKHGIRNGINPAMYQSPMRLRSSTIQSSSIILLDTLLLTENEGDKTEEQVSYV
Test [4] has as its target T5, 5-HT2C (Homo sapiens, UniProt P28335).
T5 sequence (P28335 33-458): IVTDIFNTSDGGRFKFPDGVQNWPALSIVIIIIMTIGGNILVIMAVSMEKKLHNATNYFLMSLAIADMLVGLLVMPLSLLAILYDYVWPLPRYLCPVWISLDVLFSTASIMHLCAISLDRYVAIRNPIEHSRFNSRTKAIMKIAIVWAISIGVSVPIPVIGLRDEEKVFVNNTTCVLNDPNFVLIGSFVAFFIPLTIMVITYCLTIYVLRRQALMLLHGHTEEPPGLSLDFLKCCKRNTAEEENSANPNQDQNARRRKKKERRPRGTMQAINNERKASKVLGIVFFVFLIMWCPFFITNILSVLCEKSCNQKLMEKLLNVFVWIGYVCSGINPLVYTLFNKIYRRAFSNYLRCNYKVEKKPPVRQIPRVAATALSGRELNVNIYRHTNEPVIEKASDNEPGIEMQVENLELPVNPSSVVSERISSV
The experiment in a line: Ca2+ flux assay, 5-HT2C. Format: cell-based. The arrangement: expressed in transfected cells.

Test [5] concerns the target T5, 5-HT2C. The experiment in a line: Competitive radioligand binding (NIMH PDSP). Also noted: expressed in transfected cells. On the procedure:
as §1

Test [6] deals with T4, 5-HT2B. Kind of test: Competitive radioligand binding (NIMH PDSP). Also noted: expressed in transfected cells. On the procedure:
as §1

The target in test [7] is T3, 5-HT2A. The experiment in a line: Ca2+ flux assay, 5-HT2A. Format: cell-based. Also noted: expressed in transfected cells.
In test [8] the target is T3, 5-HT2A. The experiment in a line: [3H]-ketanserin displacement, 5-HT2A membranes. Format: binding. The arrangement: ES-313-M400UA (membranes); host or cells: CHO-K1. As to conditions: [3H]-ketanserin displacement (n = 2); read-out: 5-HT2A pKi Mean ± SEM (converted).
The target of test [9] is T3, 5-HT2A. The experiment in a line: cell-based. The arrangement: expressed in transfected cells; host or cells: HEK293T, transient. The conditions noted are these: for Emax: read-out: 5-HT2A β-arrestin Emax (% 5-HT), BRET, mean ± SEM. In general terms: In BRET a luciferase serves as donor, and the signal depends on an acceptor being close.
Test [10] has as its target T3, 5-HT2A. Kind of test: cell-based. The arrangement: expressed in transfected cells; host or cells: HEK293T, transient. As to conditions: for Emax: read-out: 5-HT2A Gq Emax (% 5-HT), BRET, mean ± SEM.
[11] abbreviates: BRET, mean ± SEM, read-out: 5-HT2A β-arrestin recruitment pEC50 (converted).
[12] abbreviates: BRET, mean ± SEM, read-out: 5-HT2A Gq dissociation pEC50 (converted).

Some results are limits rather than exact numbers.

Sequence of 5-HT1D (P28221 whole entry, species assumed): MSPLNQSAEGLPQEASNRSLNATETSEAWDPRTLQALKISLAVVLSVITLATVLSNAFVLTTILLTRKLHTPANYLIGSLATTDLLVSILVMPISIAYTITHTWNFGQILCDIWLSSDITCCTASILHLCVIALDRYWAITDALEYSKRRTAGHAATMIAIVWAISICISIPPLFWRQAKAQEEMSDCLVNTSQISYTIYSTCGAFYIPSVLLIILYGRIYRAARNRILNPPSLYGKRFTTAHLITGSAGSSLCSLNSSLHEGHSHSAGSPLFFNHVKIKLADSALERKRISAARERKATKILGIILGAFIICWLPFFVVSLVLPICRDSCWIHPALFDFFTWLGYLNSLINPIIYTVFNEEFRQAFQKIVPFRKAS
Sequence of 5-HT5a (P47898 whole entry, species assumed): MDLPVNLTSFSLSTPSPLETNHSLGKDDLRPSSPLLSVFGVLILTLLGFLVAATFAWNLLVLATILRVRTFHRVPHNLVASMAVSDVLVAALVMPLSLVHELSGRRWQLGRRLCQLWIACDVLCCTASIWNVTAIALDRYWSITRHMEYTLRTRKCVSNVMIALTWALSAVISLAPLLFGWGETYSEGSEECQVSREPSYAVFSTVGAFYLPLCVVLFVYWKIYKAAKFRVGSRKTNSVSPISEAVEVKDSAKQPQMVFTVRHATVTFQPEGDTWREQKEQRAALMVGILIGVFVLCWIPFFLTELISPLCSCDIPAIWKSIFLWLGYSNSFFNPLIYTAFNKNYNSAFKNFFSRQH
Sequence of 5-HT7 (P34969 whole entry, species assumed): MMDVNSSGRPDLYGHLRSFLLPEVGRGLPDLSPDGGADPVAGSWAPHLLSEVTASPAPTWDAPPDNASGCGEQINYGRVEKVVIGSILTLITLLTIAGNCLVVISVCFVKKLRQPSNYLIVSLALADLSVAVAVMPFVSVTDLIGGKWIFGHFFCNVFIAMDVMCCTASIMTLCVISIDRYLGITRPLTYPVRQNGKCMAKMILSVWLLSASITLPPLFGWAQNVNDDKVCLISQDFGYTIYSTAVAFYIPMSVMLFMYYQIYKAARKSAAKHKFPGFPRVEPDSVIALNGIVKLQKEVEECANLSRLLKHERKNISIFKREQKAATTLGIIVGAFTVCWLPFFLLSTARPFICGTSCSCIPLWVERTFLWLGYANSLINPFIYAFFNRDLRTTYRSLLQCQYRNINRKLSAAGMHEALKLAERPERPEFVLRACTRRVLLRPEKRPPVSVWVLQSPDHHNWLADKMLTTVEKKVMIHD
Sequence of 5-HT1B (P28222 whole entry, species assumed): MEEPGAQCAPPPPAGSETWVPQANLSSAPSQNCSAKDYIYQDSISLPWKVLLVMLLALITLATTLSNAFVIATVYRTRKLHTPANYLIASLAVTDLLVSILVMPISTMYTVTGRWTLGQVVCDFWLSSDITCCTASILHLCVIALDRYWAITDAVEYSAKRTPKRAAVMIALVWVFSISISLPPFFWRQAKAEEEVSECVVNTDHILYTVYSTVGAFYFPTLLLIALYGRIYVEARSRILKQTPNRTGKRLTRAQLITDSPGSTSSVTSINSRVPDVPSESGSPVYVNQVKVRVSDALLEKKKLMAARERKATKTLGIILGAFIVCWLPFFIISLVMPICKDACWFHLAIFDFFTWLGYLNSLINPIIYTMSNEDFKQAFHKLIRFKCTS
Sequence of 5-HT1e (P28566 whole entry, species assumed): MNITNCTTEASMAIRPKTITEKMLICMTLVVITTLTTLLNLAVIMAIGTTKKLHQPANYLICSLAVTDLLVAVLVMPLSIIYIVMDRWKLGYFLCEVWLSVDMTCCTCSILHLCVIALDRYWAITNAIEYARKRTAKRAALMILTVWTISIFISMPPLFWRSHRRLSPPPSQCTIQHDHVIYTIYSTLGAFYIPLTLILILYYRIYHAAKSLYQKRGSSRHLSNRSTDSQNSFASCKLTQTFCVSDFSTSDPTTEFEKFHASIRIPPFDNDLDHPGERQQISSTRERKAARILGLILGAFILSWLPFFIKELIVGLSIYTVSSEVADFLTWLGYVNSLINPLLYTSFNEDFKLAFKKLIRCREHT

On to `COc1ccc(OC)c(CNCCc2cc(OC)c([N+](=O)[O-])cc2OC)c1` [25N-NB-2,5-DiMeO (20)], for which the Ki on 5-HT6 is > 10000 nM; on 5-HT3, > 10000 nM; at 5-HT1A, 513 nM; at 5-HT7, > 10000 nM; on 5-HT1e it was > 10000 nM; at 5-HT1D, > 10000 nM. Further, the Ki is 229 nM at 5-HT2A [1]; > 10000 nM on 5-HT5a; > 10000 nM at 5-HT1B; 145 nM on 5-HT2C [5]; 135 nM at 5-HT2B [6]. The “5-HT2A/5-HT2c Selectivity Factor ΔLog(Emax/EC50)” value in the test with 5-HT2A [2] was 5-HT2A Selective. The “5-HT2B EC50, nM” value on 5-HT2B [3] is “No activity”. The Emax was < 10% at 5-HT2B [3] (read-out: 5-HT2B Emax % 5-HT); < 10% on 5-HT2C [4] (read-out: 5-HT2C Emax % 5-HT); 72 ± 1% at 5-HT2A [7] (read-out: 5-HT2A Emax % 5-HT, Ca2+ flux). Besides, at 5-HT2C [4], the “5-HT2C EC50, nM” value was “No activity”. On 5-HT2A [7] (5-HT2A EC50, nM, Ca2+ flux), this molecule yielded an EC50 of 133 nM.

As for `COc1cc(OC)c(OC)cc1CCNCc1ccc(F)c2ccccc12` [(67)], the Ki at 5-HT2A [8] is 50.1 nM. Further, the EC50 at 5-HT2A [9] (setting [11]) was 10.2 nM; on 5-HT2A [10] (setting [12]), 22.9 nM. Further, the figures for the maximal effect (Emax) on 5-HT2A [9] and on 5-HT2A [10] were 73.6 ± 3.2% and 41 ± 1.3%, respectively.

For the molecule `COc1cc(OC)c(OC)cc1CCNCc1cccc(C)c1O` [(68)], the Ki at 5-HT2A [8] is 30.9 nM. Moreover, the EC50 is 1.41 nM at 5-HT2A [9] (setting [11]) and 3.24 nM on 5-HT2A [10] (setting [12]). Moreover, the Emax at 5-HT2A [9] was 89.1 ± 2.3%; on 5-HT2A [10], 63.4 ± 0.8%.

`COc1cc(OC)c(OC)cc1CCNCc1ccccc1C1CC1` [(70)]: at 5-HT2A [8], the Ki was 70.8 nM. The EC50 on 5-HT2A [9] (setting [11]) was 6.92 nM; on 5-HT2A [10] (setting [12]) it was 3.63 nM. Further, the maximal effect (Emax) came out at 116 ± 4.4% at 5-HT2A [9] and 97.5 ± 1.5% on 5-HT2A [10].

As for `COc1cc(OC)c(OC)cc1CCNCc1cccc(C(C)(C)C)c1` [(71)], the Ki at 5-HT2A [8] was 380 nM. For the same molecule, the EC50 on 5-HT2A [9] (setting [11]) and on 5-HT2A [10] (setting [12]) was 1620 nM each time. Besides, the figures for the maximum response (Emax) at 5-HT2A [9] and at 5-HT2A [10] were 60.4 ± 5.2% and 38.6 ± 5%, respectively.

Take `COc1cc(OC)c(OC)cc1CCNCc1cccc(I)c1F` [(72)]: the Ki on 5-HT2A [8] was 49 nM. Further, the values for the EC50 at 5-HT2A [9] (setting [11]) and on 5-HT2A [10] (setting [12]) were 7.08 nM and 33.9 nM, respectively. The values for the Emax on 5-HT2A [9] and on 5-HT2A [10] were 63.5 ± 3.2% and 60.7 ± 1.7%, respectively.

As for `COc1cc(OC)c(OC)cc1CCNCc1cccc2c1oc1ccccc12` [(74), N-(dibenzo-[b, d]-furan-4-ylmethyl)-2-(2,4,5-trimethoxyphenyl)-ethan-1-amine], on 5-HT2A [8], the Ki is 67.6 nM. In addition, the EC50 at 5-HT2A [9] (setting [11]) is 16.2 nM; at 5-HT2A [10] (setting [12]), 81.3 nM. In addition, the Emax at 5-HT2A [9] amounted to 68.3 ± 3.4%; on 5-HT2A [10], 40.2 ± 1.9%.

In the case of `COc1cc(OC)c(OC)cc1CCNCc1ccc(-c2ccccc2)o1` [(75)], the Ki at 5-HT2A [8] was 309 nM. In addition, at 5-HT2A [9], the EC50 was 891 nM and the Emax is 50.3 ± 4.7%. In addition, the “5-HT2A Gq dissociation pEC50” value at 5-HT2A [10] (BRET, mean ± SEM) was “No activity”. At 5-HT2A [10], the maximum response (Emax) is < 10%.

Regarding `COc1cc(OC)c(OC)cc1CCNCc1ccc(-c2ccccc2)s1` [(76), N-((5-phenylthiophen-2-yl)methyl)-2-(2,4,5-trimethoxyphenyl)-ethan-1-amine], at 5-HT2A [8], the Ki was 447 nM. The EC50 on 5-HT2A [9] (setting [11]) was 91.2 nM; on 5-HT2A [10] it was 1070 nM. The maximal effect (Emax) on 5-HT2A [9] is 78 ± 4%; at 5-HT2A [10], 57.4 ± 4.6%.

On to `COc1cc(OC)c(OC)cc1CCNCc1ccc(-c2cccs2)s1` [(77)], for which the Ki on 5-HT2A [8] is 324 nM. The Emax turned out to be 82.5 ± 4.2% on 5-HT2A [9] and 49 ± 5.1% on 5-HT2A [10].

As for `COc1cc(OC)c(OC)cc1CCNCc1cccc(OCc2ccccc2)c1` [(78)], at 5-HT2A [8], the Ki was 251 nM. The results for the maximum response (Emax) on 5-HT2A [9] and at 5-HT2A [10] were 50.3 ± 4.1% and 32.8 ± 4.5%, respectively.

As for `COc1cccc(COc2ccccc2CNCCc2cc(OC)c(OC)cc2OC)c1` [(79)], the Ki at 5-HT2A [8] was 158 nM. On 5-HT2A [9], the EC50 was 1120 nM and the Emax came to 33 ± 4.8%. Further, the “5-HT2A Gq dissociation pEC50” value on 5-HT2A [10] (BRET, mean ± SEM) was “No activity”. Also, on 5-HT2A [10], the maximal response (Emax) was < 10%.

Take `COc1cc(OC)c(OC)cc1CCNCc1c[nH]nc1-c1ccccc1` [(80)]: the Ki on 5-HT2A [8] is 302 nM. Further, the EC50 on 5-HT2A [9] (setting [11]) was 79.4 nM; at 5-HT2A [10] it was 537 nM. Besides, the maximal effect (Emax) at 5-HT2A [9] was 102 ± 3.7%; on 5-HT2A [10], 31.8 ± 2.3%.

By Emax is commonly meant the maximal effect, on the per cent scale that the assay sets.
